Reference: US6646005B1, “Method of treating hair loss using sulfonyl thyromimetic compounds” (The University of Texas Southwestern Medical Center, priority 1999, dated 2003)

Tested on: male Sprague Dawley rats
Assay: Cardiotoxicity Assay (heart-to-body weight ratio)
Format: in vivo, rat
Conditions: 250 μg per kg subcutaneously once daily for 28 days, hearts weighed day 30
Text: The cardiotoxicity assay measures the potential of a test compound to adversely affect the cardiovascular system. As thyroid hormone (T3) damages the cardiovascular system, the heart enlarges. See, e.g., Gomberg-Maitland et al., “Thyroid hormone and Cardiovascular Disease”, American Heart Journal, Vol. 135(2), pp. 187-196 (1998); Klein and Ojamaa, “Thyroid Hormone and the Cardiovascular System”, Current Opinion in Endocrinology and Diabetes, Vol. 4, pp.341-346 (1997); and Klemperer et al., “Thyroid Hormone Therapy and Cardiovascular Disease”, Progress in Cardiovascular Diseases, Vol. 37 (4), pp. 329-336 (1996). This increases the weight of the heart relative to whole body weight. The cardiotoxicity assay herein below is used to test compounds for potentially adverse cardiac effects by measuring their effect on the heart-to-body weight ratio.
Two groups each of six male Sprague Dawley rats (Harlan Sprague Dawley, Inc., Indianapolis, Ind.) (each weighing from approximately 220 grams to 235 grams) are utilized. The first group is a vehicle control group and the second group is a test compound group. The length of the assay is 30 days, with treatment of vehicle or test compound in vehicle daily for 28 of those days as described below.
Prior to initiation of the assay, each rat is allowed to acclimate to standard environmental conditions for 5 days. […]

N[C@@H](Cc1cc(I)c(Oc2cc(I)c(O)c(I)c2)c(I)c1)C(=O)O [T4, thyroxine]
cardiac-sparing (index C = RT/RV, heart/body ratio of test compound group over vehicle control group): not cardiac-sparing
